Results on two molecules are retold here after ChEMBL document CHEMBL5528044, “Exploring the Function of (+)-Naltrexone Precursors: Their Activity as TLR4 Antagonists and Potential in Treating Morphine Addiction” (J Med Chem, 2024).

As usually defined, the clearance is a measure of how efficiently the substance is removed, as volume per time. Higher therefore signals efficient removal. Broadly, the AUC(0-inf) is the area under the concentration-time curve extrapolated to infinity. For orientation: Cmax means the highest concentration seen after dosing. As a reminder, the Tmax is the time from dosing to the highest level. As usually defined, the IC50 is the concentration that gives 50% inhibition.

The nature of series [1]: Clearance in Balb/c mouse at 2 mg/kg,iv administration and measured upto 24 hrs by LC-MS/MS analysis. The conditions noted are these: in vivo. The series is classed as ADME, organism-based.
Series [2] in a line: AUC (0 to infinity) in Balb/c mouse at 2 mg/kg,iv administration and measured upto 24 hrs by LC-MS/MS analysis. The conditions noted are these: in vivo. The series is classed as ADME, organism-based.
A short description of series [3]: Cmax in Balb/c mouse at 20 mg/kg,po administration and measured upto 24 hrs by LC-MS/MS analysis. The series is classed as ADME, organism-based. The conditions noted are these: in vivo.
Series [4] is described as follows: Tmax in Balb/c mouse at 20 mg/kg,po administration and measured upto 24 hrs by LC-MS/MS analysis. The series is classed as ADME, organism-based. The conditions noted are these: in vivo.
The nature of series [5]: Cytotoxicity against mouse BV-2 cells incubated for 24 hrs by crystal violet staining based assay. The series is classed as toxicity, cell-based.
Series [6] has as its target T1, Toll-like receptor 4 (Mus musculus) (UniProt Q9QUK6).
T1 sequence (whole entry): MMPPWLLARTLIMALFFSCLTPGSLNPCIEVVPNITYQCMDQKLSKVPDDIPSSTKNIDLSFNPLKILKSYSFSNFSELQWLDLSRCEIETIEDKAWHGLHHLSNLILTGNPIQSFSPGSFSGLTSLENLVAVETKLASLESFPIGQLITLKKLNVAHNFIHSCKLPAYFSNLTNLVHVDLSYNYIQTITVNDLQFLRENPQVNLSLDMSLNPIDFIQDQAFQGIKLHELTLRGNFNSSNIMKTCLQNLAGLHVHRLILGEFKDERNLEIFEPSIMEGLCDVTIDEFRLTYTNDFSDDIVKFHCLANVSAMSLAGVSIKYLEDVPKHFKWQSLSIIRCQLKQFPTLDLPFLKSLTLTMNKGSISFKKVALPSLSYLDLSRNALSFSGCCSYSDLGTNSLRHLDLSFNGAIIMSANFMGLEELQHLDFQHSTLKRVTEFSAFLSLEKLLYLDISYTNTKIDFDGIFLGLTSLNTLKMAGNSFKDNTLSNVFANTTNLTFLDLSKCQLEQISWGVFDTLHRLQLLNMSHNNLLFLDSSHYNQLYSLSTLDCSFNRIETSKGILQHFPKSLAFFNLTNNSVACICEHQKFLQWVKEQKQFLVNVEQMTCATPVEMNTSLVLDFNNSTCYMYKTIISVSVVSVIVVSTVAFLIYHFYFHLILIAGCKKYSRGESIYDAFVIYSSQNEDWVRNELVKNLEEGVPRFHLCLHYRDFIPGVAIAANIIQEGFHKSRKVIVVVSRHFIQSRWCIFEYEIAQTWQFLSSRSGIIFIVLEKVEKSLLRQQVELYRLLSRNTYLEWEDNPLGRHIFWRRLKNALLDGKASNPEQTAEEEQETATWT
In words: Antagonist activity at TLR4 signaling pathway in mouse BV-2 cells assessed as inhibition of LPS-induced TRIF recruitment at 5 uM incubated for 1 hr by co-immunoprecipitation based Western blot analysis. It is filed as cell-based. As to conditions: filed as antagonist.

The target of series [7] is T1, Toll-like receptor 4 (Mus musculus). Briefly: Antagonist activity at TLR4 signaling pathway in mouse BV-2 cells assessed as downregulation of LPS-induced JNK phosphorylation at 5 uM incubated for 1 hr by Western blot analysis. The series is classed as cell-based. As to conditions: filed as antagonist.
For series [8], the system named is Mus musculus. Briefly: Inhibition of morphine-induced addiction behavior in Balb/c mouse assessed as decrease in total distance traveled in field at 0.005 to 0.2 mg/kg,ip administrated on day 4 to 10 by open-field test. The series is classed as functional, organism-based. As to conditions: dose 0.005-0.2 mg/kg, time 7.0 day.
Series [9] in a line: Toxicity in morphine-induced Balb/c mouse assessed body weight loss at 0.2 mg/kg,ip administrated for 1 week and measured on day 15. The series is classed as organism-based. The conditions noted are these: in vivo, 360 h, time 15 day.
Series [10] relates to Mus musculus. Briefly: Inhibition of chronic morphine-induced microglia activation in Balb/c mouse assessed as reduction in Iba1 expression in brain medial prefrontal cortex region at 0.2 mg/kg,ip administrated for 6 consecutive days by immunofluorescence staining based analysis. It is filed as functional, organism-based.
Series [11] relates to Mus musculus. Briefly: Inhibition of chronic morphine-induced microglia activation in Balb/c mouse assessed as reduction in Iba1 expression in brain ventral tegmental area region at 0.2 mg/kg,ip administrated for 6 consecutive days by immunofluorescence staining based analysis. The series is classed as functional, organism-based.
Series [12] concerns Mus musculus. In words: Inhibition of chronic morphine-induced microglia activation in Balb/c mouse assessed as reduction in TNF-alpha mRNA expression in brain nucleus accumbens region at 0.2 mg/kg,ip administrated for 6 consecutive days by qPCR analysis. The series is classed as functional, organism-based.

Active and inactive are the calls of the source. The calls are words filed in the database; no cut-off is given here.

As to `CN1CC[C@@]23c4c5ccc(O)c4O[C@@H]2C(=O)C=C[C@]3(O)[C@@H]1C5` (single isomer, unassigned), the clearance in series [1] amounted to 469 mL/min/kg. In addition, the AUC(0-inf) in series [2] worked out at 71.8 ng·h/mL. Besides, the Cmax in series [3] is 51.5 ng/mL. Also, the Tmax in series [4] was determined as 1.2 h. Besides, half-maximal inhibition in series [5] (IC50 at 24 h) required 13.7 µM. The outcome in [6] and in series [7] was Active. Also, the inhibition entry in the series on Mus musculus [8] is “inactive”. Moreover, the Activity entry in [9] was “Non-Toxic”. Moreover, the inhibition entry in the series on Mus musculus [10], in the series on Mus musculus [11] and in the series with Mus musculus [12] was “Active” throughout.

For the molecule `COc1ccc2c3c1O[C@@H]1C(=O)C=C[C@]4(O)[C@H](C2)N(C)CC[C@@]314` (single isomer, unassigned), in series [2], the AUC(0-inf) turned out to be 16.5 ng·h/mL. For the same molecule, the Cmax in series [3] worked out at 25 ng/mL. Also, the Tmax in series [4] came to 1.2 h. Further, the IC50 at 24 h in series [5] was 23.6 µM. The outcome in series [6] and in [7] was Active. In addition, in the series with Mus musculus [8], the inhibition entry is “inactive”. Moreover, the Activity entry in [9] was “Non-Toxic”. Further, the inhibition entry in the series with Mus musculus [10], in the series with Mus musculus [11] and with Mus musculus [12] was “Active” throughout.
